Tests used:
POLCO = assay: Field trial in field corn, early postemergence weed control, visual rating; type: in vivo, polygonum convolvulus L; conditions: early post
Protocol: (§1) Field trials were established to evaluate weed control with herbicides applied at an early postemergence timing in field corn. Each trial was conducted as a randomized complete block design with three replications of each treatment in plots that ranged in size from 2.5×6.5 meters to 3.0×8.0 meters. Herbicide treatments in these trials included: • acetochlor at 1680 g/ha • clopyralid+picloram at 93.5+23.5 g/ha • clopyralid+picloram+aminopyralid at 72+24+12 g/ha • acetochlor+clopyralid+picloram at 1680+93.5+23.5 g/ha • acetochlor+clopyralid+picloram+aminopyralid at 1680+72+24+12 g/ha These herbicide treatments were broadcast sprayed postemergence over 1 to 3 leaf corn and 1 to 2 leaf weeds. The acetochlor formulation being used also contained furilazole safener.
(§2) The degree of weed control was visually evaluated and recorded at 40 to 71 days after application as a percent of weed control. Percent control is the total injury to the plants due to all factors including: stunting, malformation, chlorosis, necrosis, inhibition of emergence, and other types of plant injury. The control ratings range from 0 to 100 percent, where 0 represents no injury and 100 represents complete kill.
(§3) The Colby method represents a direct approach to measuring the synergistic activity of two herbicides.

CHEAL = assay: as above; type: in vivo, chenopodium album L; conditions: early post
Protocol: as §1, §2, §3

POLAV = assay: as above; type: in vivo, polygonum aviculare; conditions: early post
Protocol: as §1, §2, §3

GALAP = assay: Field trial in oilseed rape, preemergence weed control, visual rating; type: in vivo, galium aparine L; conditions: preemergence to weeds
Protocol: (§4) E=X+Y-(XY/100), […] Additional field trials were established to evaluate weed control with herbicides applied at an […] timing in oilseed rape, prior to any weed emergence. Each trial was conducted as a randomized complete block design with three replications of each treatment in plots that ranged in size from 2.5×5.o meters to 3.0×6.0 meters. […] The degree of weed control was visually evaluated and recorded at 55 to 68 days after application as a percent of weed control. Percent control is the total injury to the plants due to all factors including: stunting, malformation, chlorosis, necrosis, inhibition of emergence, and other types of plant injury.

VIOAR = assay: as above; type: in vivo, viola arvensis L; conditions: preemergence to weeds
Protocol: as §4

PAPRH = assay: as above; type: in vivo, papaver rhoeas L; conditions: preemergence to weeds
Protocol: as §4

[1] = 1680 g ai/ha, 40 to 71 days after application
[2] = 750 g ai/ha, 55 to 68 days after application

## CCOCN(C(=O)CCl)c1c(C)cccc1CC [acetochlor, 2-chloro-N-(ethoxymethyl)-N-(2-ethyl-6-methylphenyl)acetamide]
POLCO; [1]
  percent of weed control: 52%
POLCO
  control of POLCO in words (synergistic action / acceptable control): did not provide acceptable control
CHEAL
  control of CHEAL in words (synergistic action / acceptable control): did not provide acceptable control
POLAV; [1]
  percent of weed control: 58%
POLAV
  control of POLAV in words (synergistic action / acceptable control): did not provide acceptable control

## Cc1cccc(C)c1N(Cn1cccn1)C(=O)CCl [metazachlor, 2-chloro-N-(2,6-dimethylphenyl)-N-(1H-pyrazol-1-ylmethyl)acetamide]
GALAP; [2]
  percent of weed control: 53%
GALAP
  control of GALAP in words (synergistic action / acceptable control): did not provide acceptable control
VIOAR; [2]
  percent of weed control: 0%
VIOAR
  control of VIOAR in words (synergistic action / acceptable control): did not provide acceptable control
PAPRH; [2]
  percent of weed control: 10%
PAPRH
  control of PAPRH in words (synergistic action / acceptable control): did not provide acceptable control

From US20080242546A1, “Synergistic herbicidal composition containing chloroacetanilides and picolinic acids” (Dow AgroSciences LLC, priority 2007, published 2008)
